The target in assay [1] is T1, human vasopressin V1a receptor (Homo sapiens, UniProt P37288). Kind of assay: Human vasopressin V1a receptor binding assay. Conditions: 1321N1 cell membranes, [3H]vasopressin; read-out: Ki (nM) on hV1a cell line. The method, then:
Human Vasopressin V1a Receptor Binding Assay
Cells were suspended in preparative buffer (50 mM Tris, 1 mM EDTA, 0.1 mM PMSF) and homogenized with glass homogenizing potter. To separate the raw membrane fraction two consecutive centrifugation procedures (40,000 g for 20 minutes at 4° C.) were executed, then the membrane was taken into the preparatory buffer during a final washing step, it was divided into aliquots which were stored at −80° C. until the time of measurement.
To determine the final affinity value, the results of at least two independent experiments were taken into account.
Non-specific binding values were determined in the presence of unlabeled 1.2×10^−6 M (Arg^8)-vasopressin. Samples were incubated in a total volume of 0.33 ml for 60 minutes at 27° C. Membrane-bound and free ligands were separated by filtration through a 0.5% polyethyleneimine-impregnated UniFilter® GF/B™. After drying the filter plates, 40 μl Microscint-20 (Packard) scintillation cocktail was added to the samples. Finally, radioactivity was measured using MicroBeta^2 Microplate Counter (Perkin Elmer).
During fitting, the asymptotes are not fixed. The K values (inhibition constant) are given with Cheng-Prusoff equation Ki=IC50/[1+(L/KD)] wherein [L] is the radioligand concentration used in the experiment and [KD] is the affinity of the radioactively labelled ligand for the given receptor. The KD is determined beforehand using the Scatchard curve.

In assay [2] the target is T1, human vasopressin V1a receptor. Kind of assay: Functional assay on human vasopressin V1a receptor expressing cell line (intracellular Ca2+ fluorescence). In kind it is cell-based. Conditions: 1321N1 cells, (Arg8)-vasopressin at EC80; read-out: IC50 (nM) on hV1a cell line. As for the experimental part: Functional Assay to Test Compounds on Human Vasopressin V1a Receptor Expressing Cell Line
The ordinary secondary messenger pathway of the measured GPCR receptor was used, the endogenous Gq-associated system.
Using 30,000 cells/plate, compounds were measured on 96-well plates. The buffer composition of the measurements was the following (expressed in mM): 140 NaCl, 5 KCl, 2 CaCl2), 2 MgCl2, 10 glucose, 10 HEPES (4-(2-hydroxyethyl)-1-piperazine-ethanesulfonic acid), 2 probenecid, pH=7.4. FLIPR Calcium 5 kit (Molecular Devices) was used as fluorescent dye, the medium was not removed prior to filling with the dye and the cells were not washed out either before or after. The incubation was performed at room temperature, the final concentration of DMSO was 1%. The materials to be measured were administered in 15 to 20 minutes pretreatment, at least two parallels of each compound in each concentration was measured.
Fluorescence signal was used to determine the intracellular Ca^2+ level, the reader was FlexStation II96. […] The fluorescence signal was logged in every 1.4 seconds for 1 minute. The reference compounds used were the following: (Arg^8)-vasopressin as agonist at concentration of EC80, determined for each plate, and relcovaptan as antagonist at 1 μM. The % of inhibition at each concentration and the IC50 value of the compounds were determined where a concentration line was also measured.
The total AVP concentration-response curve was recorded on each plate. The effect of compounds measured was expressed by percentage of relative inhibition compared to control response. […] The average IC50 values were calculated from at least three independent measurements in all cases.

24 compounds from patent publication US11298363B2, “Triazolobenzazepines as vasopressin V1a receptor antagonists” (RICHTER GEDEON NYRT., priority 2017, dated 2022) can be followed below.

T1 sequence (P37288 whole entry): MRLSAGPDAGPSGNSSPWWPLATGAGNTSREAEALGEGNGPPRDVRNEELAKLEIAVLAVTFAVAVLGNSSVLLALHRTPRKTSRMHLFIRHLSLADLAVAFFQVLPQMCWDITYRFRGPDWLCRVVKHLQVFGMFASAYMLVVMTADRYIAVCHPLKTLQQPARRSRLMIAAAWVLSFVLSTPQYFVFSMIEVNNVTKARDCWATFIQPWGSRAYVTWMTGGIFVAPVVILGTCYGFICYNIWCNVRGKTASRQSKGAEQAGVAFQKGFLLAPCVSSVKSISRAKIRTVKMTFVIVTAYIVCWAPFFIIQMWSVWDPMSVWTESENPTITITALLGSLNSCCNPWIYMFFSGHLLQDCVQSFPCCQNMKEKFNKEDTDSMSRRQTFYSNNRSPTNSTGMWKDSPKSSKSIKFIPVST

As for `Cc1ccc2c(c1)CC(N)Cc1nnc([C@H]3CC[C@H](Oc4ccccn4)CC3)n1-2` (stereo partly drawn) [Example 37, 8-methyl-1-[trans-4-(pyridin-2-yloxy)cyclohexyl]-5,6-dihydro-4H-[1,2,4]triazolo[4,3-a][1]benzazepine-5-amine], the Ki in assay [1] worked out at 7 nM. Besides, the IC50 in assay [2] was determined as 100 nM.

Consider `OCCN[C@@H]1Cc2cc(Cl)ccc2-n2c(nnc2[C@H]2CC[C@H](Oc3ccccn3)CC2)C1` [Example 196, 2-({(5R)-8-chloro-1-[trans-4-(pyridin-2-yloxy)cyclohexyl]-5,6-dihydro-4H-[1,2,4]triazolo[4,3-a][1]benzazepin-5-yl}amino)ethanol], for which the Ki in assay [1] is 0.5 nM. Also, in assay [2], the IC50 came out at 2.7 nM.

In the case of `O/N=C1/Cc2cc(Cl)ccc2-n2c(nnc2[C@H]2CC[C@H](Oc3ccccn3)CC2)C1` [Example 208, 8-chloro-N-hydroxy-1-[trans-4-(pyridin-2-yloxy)cyclohexyl]-4H-[1,2,4]triazolo[4,3-a][1]benzazepin-5(6H)-imine], the Ki in assay [1] turned out to be 0.1 nM. The IC50 in assay [2] came out at 2.2 nM.

Turning to `O=C(N[C@H]1Cc2cc(Cl)ccc2-n2c(nnc2[C@H]2CC[C@H](Oc3ccccn3)CC2)C1)c1ccc(F)cc1` [Example 80], in assay [1], the inhibition constant (Ki) came out at 58 nM. Besides, the half-maximal inhibitory concentration (IC50) in assay [2] was 520 nM.

As to `O=C1Cc2cc(Br)ccc2-n2c(nnc2[C@H]2CC[C@H](C(F)(F)F)CC2)C1` [Example 91, 8-bromo-1-[trans-4-(trifluoromethyl)cyclohexyl]-4H-[1,2,4]triazolo[4,3-a][1]benzazepin-5(6H)-one], the Ki in assay [1] was 9.1 nM. Further, the IC50 in assay [2] was found to be 45 nM.

In the case of `COC1Cc2cc(Cl)ccc2-n2c(nnc2[C@@H]2CCN(Cc3cccnc3)C2)C1` (stereo partly drawn) [Example 247], the Ki in assay [1] was 5 nM. Also, in assay [2], the IC50 is 30 nM.

As to `CN1C[C@]2(CC[C@@H](c3nnc4n3-c3ccc(Cl)cc3CC3(C4)OCCO3)CC2)OC1=O` [Example 75, (trans)-8-(8′-chloro-4′H, 6′H-spiro[1,3-dioxolane-2,5′-[1,2,4]triazolo[4,3-a][1]benzazepin]-1′-yl)-3-methyl-1-oxa-3-azaspiro[4.5]decan-2-one], in assay [1], the Ki was 3.7 nM. Moreover, the half-maximal inhibitory concentration (IC50) in assay [2] is 10.4 nM.

In the case of `CC(C)[C@@H](N)C(=O)N[C@@H]1Cc2cc(Cl)ccc2-n2c(nnc2[C@H]2CC[C@H](Oc3ccccn3)CC2)C1` [Example 141, N-{(5R)-8-chloro-1-[trans-4-(pyridin-2-yloxy)cyclohexyl]-5,6-dihydro-4H-[1,2,4]triazolo[4,3-a][1]benzazepin-5-yl}-D-valinamide], the inhibition constant (Ki) in assay [1] is 0.7 nM. Further, the 50% inhibitory concentration (IC50) in assay [2] is 8.9 nM.

Turning to `O=C(N[C@H]1Cc2cc(Cl)ccc2-n2c(nnc2[C@H]2CC[C@H](Oc3ccccn3)CC2)C1)C1CC1` [Example 119, N-{(5S)-8-chloro-1-[trans-4-(pyridin-2-yloxy)cyclohexyl]-5,6-dihydro-4H-[1,2,4]triazolo[4,3-a][1]benzazepin-5-yl}cyclopropanecarboxamide], the Ki in assay [1] was 27 nM. Moreover, the IC50 in assay [2] turned out to be 111 nM.

`N#CCC(=O)OC1Cc2cc(Cl)ccc2-n2c(nnc2[C@H]2CC[C@H](Oc3ccccn3)CC2)C1` (stereo partly drawn) [Example 215, 8-chloro-1-[trans-4-pyridin-2-yloxy)cyclohexyl]-5,6-dihydro-4H-[1,2,4]triazolo[4,3-a][1]benzazepin-5-yl cyanoacetate]: the inhibition constant Ki in assay [1] came out at 0.2 nM. The half-inhibitory concentration (IC50) in assay [2] came out at 3.7 nM.

With `FC(F)(F)[C@H]1CC[C@H](c2nnc3n2-c2ccc(Br)cc2CC2(C3)OCCO2)CC1` [Example 81, 8′-bromo-1′-[trans-4-(trifluoromethyl)cyclohexyl]-4′H,6′H-spiro[1,3-dioxolane-2,5′-[1,2,4]triazolo[4,3-a][1]benzazepine]], the inhibition constant (Ki) in assay [1] came to 0.2 nM. Besides, in assay [2], the concentration for half-maximal inhibition (IC50) turned out to be 1.4 nM.

For `CO[C@H]1Cc2cc(Cl)ccc2-n2c(nnc2[C@H]2CC[C@H](C(F)(F)F)CC2)C1` (single isomer, unassigned) [Example 133], the Ki in assay [1] amounted to 0.4 nM. In assay [2], the IC50 is 6.5 nM.

For the compound `COC1Cc2cc(Cl)ccc2-n2c(nnc2C2CCN(C(=O)c3cccnc3)C2)C1` (stereo not drawn) [Example 187, [3-(8-chloro-5-methoxy-5,6-dihydro-4H-[1,2,4]triazolo[4,3-a][1]benzazepin-1-yl)pyrrolidin-1-yl](pyridin-3-yl)methanone], the Ki in assay [1] was found to be 86 nM. Further, in assay [2], the half-maximal inhibitory concentration (IC50) stood at 4750 nM.

In the case of `CC[C@]1(OC)CC[C@@H](c2nnc3n2-c2ccc(Cl)cc2CC2(C3)OCCO2)CC1` [Example 240, 8′-chloro-1′-(cis-4-ethyl-4-methoxycyclohexyl)-4′H,6′H-spiro[1,3-dioxolane-2,5′-[1,2,4]triazolo[4,3-a][1]benzazepine]], the Ki in assay [1] was determined as 0.5 nM. Further, the IC50 in assay [2] is 3.1 nM.

On to `CCO[C@]1(CC)CC[C@@H](c2nnc3n2-c2ccc(Cl)cc2CC2(C3)OCCO2)CC1` [Example 229, 8′-chloro-1′-(trans-4-ethoxy-4-ethylcyclohexyl)-4′H,6′H-spiro[1,3-dioxolane-2,5′-[1,2,4]triazolo[4,3-a][1]benzazepine]], for which, in assay [1], the Ki was 0.4 nM. The 50% inhibitory concentration (IC50) in assay [2] was 2.1 nM.

For the compound `COC1Cc2cc(Cl)ccc2-n2c(nnc2C2CCN([C@@H]3CCOC3)CC2)C1` (stereo partly drawn) [Example 178, 8-chloro-5-methoxy-1-{1-[(3R)-tetrahydrofuran-3-yl]piperidin-4-yl}-5,6-dihydro-4H-[1,2,4]triazolo[4,3-a][1]benzazepine], the Ki in assay [1] amounted to 3.9 nM. Also, in assay [2], the IC50 amounted to 19 nM.

As to `N#Cc1ccc2c(c1)CC1(Cc3nnc([C@H]4CC[C@H](C(F)(F)F)CC4)n3-2)OCCO1` [Example 84, 1′-[trans-4-(trifluoromethyl)cyclohexyl]-4′H,6′H-spiro[1,3-dioxolane-2,5′-[1,2,4]triazolo[4,3-a][1]benzazepine]-8′-carbonitrile], the Ki in assay [1] came to 11.4 nM. In addition, the IC50 in assay [2] amounted to 72 nM.

Take `CC(=O)OC1Cc2cc(Cl)ccc2-n2c(nnc2[C@H]2CC[C@H](Oc3ccccn3)CC2)C1` (stereo partly drawn) [Example 195, 8-chloro-1-[trans-4-(pyridin-2-yloxy)cyclohexyl]-5,6-dihydro-4H-[1,2,4]triazolo[4,3-a][1]benzazepin-5-yl acetate]: the inhibition constant (Ki) in assay [1] worked out at 0.3 nM. The IC50 in assay [2] is 1.6 nM.

Turning to `FC1Cc2cc(Cl)ccc2-n2c(nnc2[C@H]2CC[C@H](Oc3ccccn3)CC2)C1` (stereo partly drawn) [Example 206, 8-chloro-5-fluoro-1-[trans-4-(pyridin-2-yloxy)cyclohexyl]-5,6-dihydro-4H-[1,2,4]triazolo[4,3-a][1]benzazepine], the Ki in assay [1] is 0.2 nM. The 50% inhibitory concentration (IC50) in assay [2] was 0.9 nM.

For `Clc1ccc2c(c1)CC1(Cc3nnc(N4CCN(c5ncccc5Cl)CC4)n3-2)OCCO1` [Example 164, 8′-chloro-1-[4-(3-chloropyridin-2-yl)piperazin-1-yl]-4′H,6′H-spiro[1,3-dioxolane-2,5′-[1,2,4]triazolo[4,3-a][1]benzazepine]], the inhibition constant (Ki) in assay [1] was 0.3 nM. In addition, the IC50 in assay [2] was 0.9 nM.

Regarding `CC(C)C(=O)NC1Cc2cc(Cl)ccc2-n2c(nnc2C2CCN(c3ccccn3)CC2)C1` (stereo not drawn) [Example 4], the Ki in assay [1] is 70 nM. Further, the concentration for half-maximal inhibition (IC50) in assay [2] came out at 825 nM.

For the compound `CC(C)NC1Cc2ccccc2-n2c(nnc2[C@H]2CC[C@H](Oc3ccccn3)CC2)C1` (stereo partly drawn) [Example 150, N-(propan-2-yl)-1-[trans-4-(pyridin-2-yloxy)cyclohexyl]-5,6-dihydro-4H-[1,2,4]triazolo[4,3-a][1]benzazepin-5-amine], in assay [1], the Ki turned out to be 5 nM. Besides, in assay [2], the IC50 is 94 nM.

For the compound `COC1Cc2cc(Cl)ccc2-n2c(nnc2N2CCN(c3ccccn3)CC2)C1` (stereo not drawn) [Example 232, 8-chloro-5-methoxy-1-[4-(pyridin-2-yl)piperazin-1-yl]-5,6-dihydro-4H-[1,2,4]triazolo[4,3-a][1]benzazepine], the inhibition constant Ki in assay [1] was determined as 1.3 nM. Besides, the half-maximal inhibitory concentration (IC50) in assay [2] is 9.2 nM.

With `OC1Cc2ccccc2-n2c(nnc2[C@H]2CC[C@H](Oc3ccccn3)CC2)C1` (stereo partly drawn) [Example 107, 1-[trans-4-(pyridin-2-yloxy)cyclohexyl]-5,6-dihydro-4H-[1,2,4]triazolo[4,3-a][1]benzazepin-5-ol], the Ki in assay [1] stood at 1 nM. Also, in assay [2], the IC50 came to 12 nM.

A word on the Ki: it is the dissociation constant of the complex between target and ligand, obtained from inhibition or displacement. One may read the IC50 as the concentration at which inhibition is half-maximal.
